Results: patent publication EP0107890B1, “Mammalian PGRF” (THE SALK INSTITUTE FOR BIOLOGICAL STUDIES, priority 1982, dated 1986)
Where no end group is shown, it is not given here.

Assays:
pituitary cells = assay: in vitro growth hormone release assay in rat pituitary cell cultures (immunoreactive GH by radioimmunoassay); format: cell-based
Experimental: To determine the effectiveness of the peptides to promote the release of growth hormone, in vitro assays are carried out using synthetic PGRF(1-40) of Example II in side-by-side comparison with equimolar concentrations of the extracted and purified native PGRF (1-40) and of a GRF Reference Standard having a known effectiveness to promote the release of growth hormone from pituitary cells. The GRF Reference standard is described and defined in Brazeau, et al., Endocrinology, Vol. 110, A538(1982) and is an amount of a preparation of rat hypothalamic origin that produces a half-maximal response in terms of GH release in a pituitary cell monolayer bioassay. Cultures are used which include cells of rat pituitary glands removed some four to five days previously. Both cultures of a defined standard medium and cultures which are considered optimal for the secretion of growth hormone are used for the comparative testing, in the general manner described in Brazeau, et al. Regulatory Peptides, 1, 255, 1981. Incubation with the substance to be tested is carried out for 3 to 4 hours, and aliquots of the culture medium are removed and processed to measure their contents in immunoreactive GH(ir GH) by a well-characterized radioimmunoassay.

normal male rats = assay: in vivo secretion of pituitary growth hormone after injection into anesthetized rats; details: injected into rats
Source text: In addition to the in vitro tests for secretion of growth hormone, in vivo experiments were also run by injecting the synthetic peptide into normal male rats about 200 g. body weight, anesthetized with pentobarbital.

“PGRF(1-40) (YADAIFTNSYRKVLGQLSARKLLQDIMSRQQGESNQERGA-OH; UniProt P01286 32-71, looked up, fragment) [Example II]” was tested, and the ED50 (pituitary cells; GH release from rat pituitary cell cultures, incubation 3 to 4 hours) was “about 113 picograms”, the “biological activity compared with the native peptide” value (pituitary cells; in equimolar ratios, versus extracted and purified native PGRF (1-40)) was “full biological activity of the native peptide” and the “GH-releasing activity in vivo” value (normal male rats) was “powerful stimulator of the secretion of pituitary growth hormone”.
